Laboratory results: patent US20250066328A1, “PARP7 INHIBITORS” (Gilead Sciences, Inc., priority 2023, published 2025)

System: STAT1 (phosphorylated at Tyr701) in NCI-H1373 cells
Experiment: Phospho-STAT1 (Tyr701) LANCE Ultra TR-FRET detection assay in NCI-H1373 cells
Format: cell-based
Details: Homo sapiens, NCI-H1373, 48 h, 48 hours incubation, induction of pSTAT1, normalized to 10 uM positive control and DMSO, 4-parameter fit, read-out: NH1373 pSTAT1 EC50
Experimental: Phospho-STAT1 (Tyr701 LANCE Ultra TR-FRET Detection Assay
LANCE Ultra phospho-STAT1 (Tyr701) kits are designed for the detection of phosphorylated STAT1 in cell lysates using a simple, homogeneous LANCE Ultra sandwich assay (Cat. #TRF4028M). This assay is intended for assessing compound induction of endogenous levels of cellular STAT1 (phosphorylated at Tyr701) in NCI-H1373 cells. The NCI-H1373 cells are cultured in RPMI 1640 media containing 10% heat inactivated FBS, GlutaMAX, 1% Penicillin-Streptomycin. An Echo acoustic liquid handler is used to transfer 60 nanoliters of compound dilutions using the Echo Qualified, 384-well polypropylene microplate clear flat bottom source plates into a Greiner (#781080) cell culture microplate. NCI-H1373 cells are seeded into these compound-spotted culture plates at 30,000 cells/well in a 60 uL volume in growth media. The plates are incubated in a 5% CO2 humidified incubator at 37° C. for 48 hours. […] Briefly, […] of supplemented lysis buffer is added to each well and allowed to shake for 1 hour at 400 rpm. Next, 5 ul of remixed antibody solutions (vol/vol) prepared in detection buffer are added to each well and allowed to incubate at room temperature overnight. After spinning the plate down at 300 rpm for 1 min, the plate is read on an EnVision plate reader set up for Eu^3+ Cryptate and fluorescence emission is measured at two different wavelengths (665 nm and 620 nm). The HTRF ratio is then calculated ([…]) for each well to determine the amount of pSTAT1 in the cell lysate, and the data is then normalized to 10 uM (S)-5-((1-(3-oxo-3-(4-(5-(trifluoromethyl)pyrimidin-2-yl)piperazin-1-yl)propoxy)propan-2-yl)amino)-4-(trifluoromethyl)pyridazin-3(2H)-one positive and DMSO negative controls. The values were then plotted as a function of compound concentration and a 4-parameter fit was applied to derive the EC50 values.

| SMILES | EC50 [nM] |
| --- | --- |
| COc1cnc(-c2cc3ccn(C[C@H](F)C[C@H](C)Oc4cn[nH]c(=O)c4C(F)(F)F)c(=O)c3cc2F)nc1 [Example 45] | 1.01 |
| COc1cnc(-c2cc3ccn(CC(F)CC(COC(F)F)Nc4cn[nH]c(=O)c4C(F)(F)F)c(=O)c3cc2F)nc1 (stereo not shown) [Example 128] | 3.08 |
| COc1cnc(-c2cc3ncn(C[C@@H](F)C[C@H](C)Oc4cn[nH]c(=O)c4C(F)(F)F)c(=O)c3cc2F)nc1 [Example 67] | 3.44 |
| C[C@@H](C[C@@H](F)Cn1ccc2cc(-c3ncc(C(C)(O)C(F)(F)F)cn3)c(F)cc2c1=O)Nc1cn[nH]c(=O)c1C(F)(F)F (stereo partly shown) [Example 84] | 2.79 |
| C[C@@H](C[C@@H](F)Cn1ccc2cc(-c3ncc(C(F)(F)CO)cn3)c(F)cc2c1=O)Nc1cn[nH]c(=O)c1C(F)(F)F [Example 85] | 4.39 |
| C[C@@H](C[C@@H](F)Cn1ccc2cc(-c3ncc(C(C)(F)F)cn3)c(F)c(F)c2c1=O)Nc1cn[nH]c(=O)c1C(F)(F)F [Example 98] | 0.97 |
| COc1cnc(-c2cc3ncn(C[C@H](F)C[C@H](C)Oc4cn[nH]c(=O)c4C(F)(F)F)c(=O)c3cc2F)nc1 (single isomer, unassigned) [Example 57] | 38.8 |
| C[C@@H](C[C@@H](F)Cn1ccc2cc(-c3ncc(S(C)(=O)=O)cn3)c(F)cc2c1=O)Oc1cn[nH]c(=O)c1C(F)(F)F [Example 41] | 402 |
| CC(C)(O)c1cnc(-c2cc3ccn(CCC[C@H](COC(F)F)Oc4cn[nH]c(=O)c4C(F)(F)F)c(=O)c3cc2F)nc1 (single isomer, unassigned) [Example 35] | 20.5 |
| C[C@@H](CC(O)Cn1ccc2cc(-c3nc4ccccn4n3)c(F)cc2c1=O)Nc1cn[nH]c(=O)c1C(F)(F)F (stereo partly drawn) [Example 21, 6-([1,2,4]triazolo[1,5-a]pyridin-2-yl)-7-fluoro-2-((4S)-2-hydroxy-4-((6-oxo-5-(trifluoromethyl)-1,6-dihydropyridazin-4-yl)amino)pentyl)isoquinolin-1(2H)-one] | 13.3 |
| COc1cnc(-c2cc3ccn(C[C@H](F)C[C@H](C)Oc4cn[nH]c(=O)c4C(F)(F)F)c(=O)c3cc2F)nc1N [Example 40] | 14.7 |
| C[C@@H](C[C@@H](F)Cn1ccc2cc(-c3ncc(Cl)cn3)c(F)c(F)c2c1=O)Oc1cn[nH]c(=O)c1C(F)(F)F (single isomer, unassigned) [Example 43] | 0.62 |
| C[C@@H](C[C@@H](O)Cn1ccc2cc(-c3ncc(C(F)(F)F)cn3)c(F)cc2c1=O)Oc1cn[nH]c(=O)c1C(F)(F)F (single isomer, unassigned) [Example 17] | 23.3 |
| C[C@@H](C[C@@H](F)Cn1ccc2cc(-c3ncc(C(C)(F)F)cn3)c(F)c(F)c2c1=O)Oc1cn[nH]c(=O)c1C(F)(F)F [Example 46] | 0.667 |
| C[C@@H](C[C@@H](F)Cn1ccc2cc(-c3nccs3)c(F)cc2c1=O)Nc1cn[nH]c(=O)c1C(F)(F)F [Example 103] | 138 |
| COC(C[C@H](C)Nc1cn[nH]c(=O)c1C(F)(F)F)Cn1ccc2cc(-c3ncc(C(F)(F)F)cn3)c(F)cc2c1=O (stereo partly drawn) [Example 10, 7-fluoro-2-((4S)-2-methoxy-4-((6-oxo-5-(trifluoromethyl)-1,6-dihydropyridazin-4-yl)amino)pentyl)-6-(5-(trifluoromethyl)pyrimidin-2-yl)isoquinolin-1(2H)-one] | 30.8 |
| C[C@@H](C[C@@H](F)CN1Cc2cc(-c3ncc(C(F)(F)F)cn3)c(F)cc2C1=O)Nc1cn[nH]c(=O)c1C(F)(F)F [Example 117, 6-fluoro-2-[(2R,4S)-2-fluoro-4-[[6-oxo-5-(trifluoromethyl)-1H-pyridazin-4-yl]amino]pentyl]-5-[5-(trifluoromethyl)pyrimidin-2-yl]isoindolin-1-one] | 11.8 |

| SMILES | EC50 [nM] |
| --- | --- |
| C[C@@H](C[C@@H](F)Cn1ccc2cc(-c3ncc4c(n3)NCCO4)c(F)cc2c1=O)Nc1cn[nH]c(=O)c1C(F)(F)F [Example 113] | 1.94 |
| C[C@@H](C[C@@H](F)Cn1ccc2cc(-c3ncc(C(F)(F)F)cn3)c(F)cc2c1=O)Nc1cn[nH]c(=O)c1C(F)(F)F [Example 2] | 0.947 |
| C[C@@H](C[C@H](F)Cn1ccc2cc(-c3ncc(C(F)(F)F)cn3)c(F)cc2c1=O)Nc1cn[nH]c(=O)c1C(F)(F)F (single isomer, unassigned) [Example 3] | 11.7 |
| C[C@@H](C[C@@H](F)Cn1cc(F)c2cc(-c3ncc(C(F)F)c(N)n3)c(F)cc2c1=O)Nc1cn[nH]c(=O)c1C(F)(F)F [Example 24, 6-(4-amino-5-(difluoromethyl)pyrimidin-2-yl)-4,7-difluoro-2-((2R,4S)-2-fluoro-4-((6-oxo-5-(trifluoromethyl)-1,6-dihydropyridazin-4-yl)amino)pentyl)isoquinolin-1(2H)-one] | 2.39 |
| C[C@@H](C[C@@H](F)Cn1cnc2cc(-c3ncc(C(F)(F)F)cn3)c(F)cc2c1=O)Oc1cn[nH]c(=O)c1C(F)(F)F [Example 39] | 1.49 |
| C[C@@H](C[C@H](F)Cn1ccc2cc(-c3ncc(C(C)(C)O)cn3)c(F)cc2c1=O)Nc1cn[nH]c(=O)c1C(F)(F)F (single isomer, unassigned) [Example 9] | 238 |
| COc1cnc(-c2cc3ccn(C[C@H](F)C[C@H](C)Oc4cn[nH]c(=O)c4C(F)(F)F)c(=O)c3c(F)c2F)nc1 [Example 44] | 0.375 |
| C[C@@H](C[C@H](O)Cn1ccc2cc(-c3ncc(C(F)(F)F)cn3)c(F)cc2c1=O)Oc1cn[nH]c(=O)c1C(F)(F)F [Example 18] | 1.81 |
| COc1cnc(-c2cc3c(F)cn(C[C@H](F)C[C@H](C)Oc4cn[nH]c(=O)c4C(F)(F)F)c(=O)c3cc2F)nc1 [Example 53] | 202 |
| C[C@@H](C[C@H](F)Cn1ccc2cc(-c3ncc(C(F)F)c(N)n3)c(F)cc2c1=O)Oc1cn[nH]c(=O)c1C(F)(F)F (single isomer, unassigned) [Example 15] | 0.786 |
| C[C@@H](C[C@@H](F)Cn1cc(F)c2cc(-c3ncc(C(F)F)cn3)c(F)cc2c1=O)Nc1cn[nH]c(=O)c1C(F)(F)F [Example 29] | 1.86 |
| COc1cnc(-c2cc3ccn(C[C@@H](F)C[C@H](C)Oc4cn[nH]c(=O)c4C(F)(F)F)c(=O)c3cc2F)nc1N [Example 59] | 1.21 |
| C[C@@H](C[C@@H](F)Cn1cnc2cc(-c3ncc(C(C)(F)F)cn3)c(F)cc2c1=O)Nc1cn[nH]c(=O)c1C(F)(F)F [Example 107] | 2.52 |
| C[C@@H](C[C@@H](F)Cn1ccc2cc(-c3ncc(C(F)CF)cn3)c(F)cc2c1=O)Nc1cn[nH]c(=O)c1C(F)(F)F (stereo partly shown) [Example 94] | 4.58 |
| C[C@@H](C[C@H](F)Cn1ccc2cc(-c3ncc(S(C)(=O)=O)cn3)c(F)cc2c1=O)Oc1cn[nH]c(=O)c1C(F)(F)F [Example 60] | 10.2 |
| CC(O)c1cnc(-c2cc3ccn(C[C@H](F)C[C@H](C)Nc4cn[nH]c(=O)c4C(F)(F)F)c(=O)c3cc2F)nc1 (stereo partly shown) [Example 111] | 4.64 |
| CC[C@@H](C[C@@H](F)Cn1ccc2cc(-c3ncc(C(F)(F)F)cn3)c(F)cc2c1=O)Nc1cn[nH]c(=O)c1C(F)(F)F [Example 118, 7-fluoro-2-((2R,4S)-2-fluoro-4-((6-oxo-5-(trifluoromethyl)-1,6-dihydropyridazin-4-yl)amino)hexyl)-6-(5-(trifluoromethyl)pyrimidin-2-yl)isoquinolin-1(2H)-one] | 2.18 |
